Each structure is given as a SMILES string.

One test relates to IL-1β production in PMA-differentiated THP-1 cells. The test is described as follows: IL-1β production in PMA-differentiated THP-1 cells stimulated with gramicidin (hTHP-1 assay containing 2% fetal bovine serum). Format: cell-based, human. Particulars: Homo sapiens, THP-1, Table B1; 2% fetal bovine serum; cells printed as numeric bound; read-out: hTHP-1 IC50 (Average IC50 of compounds in hTHP-1 assay). The gist of the method:
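IL-1β release was read by HTRF on supernatants of 50,000 PMA-primed (20 ng/ml, 16-18 h) THP-1 cells/well in 2% FBS medium. Cells saw compound for 1 h (11-point titration from 100 μM, 0.37% DMSO) before a 2 h gramicidin (5 μM) challenge.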
For orientation: IC50 means the concentration needed to halve the response being measured. Take `CC(C)(O)c1ncc(S(N)(=O)=NC(=O)Cc2cc3c(c4c2CCC4)CCC3)s1` (stereo not drawn) [Example 242, N-(amino(2-(2-hydroxypropan-2-yl)thiazol-5-yl)(oxo)-λ^6-sulfaneylidene)-2-(1,2,3,6,7,8-hexahydro-as-indacen-4-yl)acetamide]: the IC50 is > 30 µM.

The same test, now with this note: Homo sapiens, THP-1, Table B1; 2% fetal bovine serum; class symbols; read-out: hTHP-1 IC50 (Average IC50 of compounds in hTHP-1 assay).
Consider `CC(C)c1cc(C#CC2CCOCC2)cc(C(C)C)c1CC(=O)N=S(N)(=O)c1cc(C(C)(C)O)n(-c2ccccc2)n1` (stereo not drawn) [Example 229, N-(amino(5-(2-hydroxypropan-2-yl)-1-phenyl-1H-pyrazol-3-yl)(oxo)-λ^6-sulfaneylidene)-2-(2,6-diisopropyl-4-((tetrahydro-2H-pyran-4-yl)ethynyl)phenyl)acetamide], for which the IC50 was in the range of 1 to 5 µM.
Still for that read-out and setting: the value for `CC(C)c1cc(C(F)F)cc(C(C)C)c1CC(=O)N=S(N)(=O)c1ccc(CN(C)C)nc1` (stereo not drawn) [Example 230, N-(amino(6-((dimethylamino)methyl)pyridin-3-yl)(oxo)-λ^6-sulfaneylidene)-2-(4-(difluoromethyl)-2,6-diisopropylphenyl)acetamide] was 1 to 5 µM; that for `CC(C)c1cc2c(c(C(C)C)c1CC(=O)N=[S@@](N)(=O)c1cnc(C(C)(C)O)s1)OC(F)(F)O2` [Example 231] was 0.2 to 1 µM.
On to `CC(C)c1cc2c(cnn2C)c(C(C)C)c1CC(=O)N=[S@@](N)(=O)c1cnc(C(C)(C)O)s1` [Example 232, (R)-N-(amino(2-(2-hydroxypropan-2-yl)thiazol-5-yl)(oxo)-λ^6-sulfaneylidene)-2-(4,6-diisopropyl-1-methyl-1H-indazol-5-yl)acetamide], for which the IC50 lay in the range of 5 to 30 µM.
On the same count and under the same terms, the value for `Cc1c2c(cc(C3CC3)c1CC(=O)N=[S@@](N)(=O)c1cnc(C(C)(C)O)s1)CCC2` [Example 233, (R)-N-(amino(2-(2-hydroxypropan-2-yl)thiazol-5-yl)(oxo)-λ^6-sulfaneylidene)-2-(6-cyclopropyl-4-methyl-2,3-dihydro-1H-inden-5-yl)acetamide] was 5 to 30 µM; that for `COCc1cc(C(C)C)c(CC(=O)N=S(N)(=O)c2ncc(C(C)(C)O)s2)c(C(C)C)n1` (stereo not drawn) [Example 236, N-(amino(5-(2-hydroxypropan-2-yl)thiazol-2-yl)(oxo)-λ^6-sulfaneylidene)-2-(2,4-diisopropyl-6-(methoxymethyl)pyridin-3-yl)acetamide] was 1 to 5 µM; that for `CC(C)c1cc(C#N)nc(C(C)C)c1CC(=O)NS(=N)(=O)c1sc(C(C)(C)O)nc1CO` (stereo not drawn) [Example 237, 2-(6-cyano-2,4-diisopropylpyridin-3-yl)-N-(4-(hydroxymethyl)-2-(2-hydroxypropan-2-yl)thiazole-5-sulfonimidoyl)acetamide] was 5 to 30 µM.
Regarding `CC(C)c1cc(C#N)c(F)c(C(C)C)c1CC(=O)N=S(N)(=O)c1cnc(C(C)(O)CO)s1` (stereo not drawn) [Example 238, N-(amino(2-(1,2-dihydroxypropan-2-yl)thiazol-5-yl)(oxo)-λ^6-sulfaneylidene)-2-(4-cyano-3-fluoro-2,6-diisopropylphenyl) acetamide], the IC50 is 1 to 5 µM.
For the compound `CC(C)c1cc(C#N)c(F)c(C(C)C)c1CC(=O)N=S(N)(=O)c1cc(C(C)(C)O)n(-c2ccccc2)n1` (stereo not drawn) [Example 239, N-(amino(5-(2-hydroxypropan-2-yl)-1-phenyl-1H-pyrazol-3-yl)(oxo)-λ^6-sulfaneylidene)-2-(4-cyano-3-fluoro-2,6-diisopropylphenyl)acetamide], the IC50 lay in the range of 1 to 5 µM.
Same read-out and setting: the value for `CC(C)c1cc(C#CC2CCCC2)cc(C(C)C)c1CC(=O)N=S(N)(=O)c1cc(C(C)(C)O)c(-c2ccccc2)s1` (stereo not drawn) [Example 240, N-(amino(4-(2-hydroxypropan-2-yl)-5-phenylthiophen-2-yl)(oxo)-λ^6-sulfaneylidene)-2-(4-(cyclopentylethynyl)-2,6-diisopropylphenyl)acetamide] was 5 to 30 µM; that for `CC(C)c1cc(COC2CCCC2)cc(C(C)C)c1CC(=O)N=S(N)(=O)c1cc(C(C)(C)O)n(-c2ccc(F)cc2)n1` (stereo not drawn) [Example 241, N-(amino(1-(4-fluorophenyl)-5-(2-hydroxypropan-2-yl)-1H-pyrazol-3-yl)(oxo)-λ^6-sulfaneylidene)-2-(4-((cyclopentyloxy)methyl)-2,6-diisopropylphenyl)acetamide] was 5 to 30 µM; that for `CC(C)c1cc2c(c(C(C)C)c1CC(=O)N=S(N)(=O)c1ccn(C(F)F)n1)COC2` (stereo not drawn) [Example 243, N-(amino(1-(difluoromethyl)-1H-pyrazol-3-yl)(oxo)-λ^6-sulfaneylidene)-2-(4,6-diisopropyl-1,3-dihydroisobenzofuran-5-yl) acetamide] was 5 to 30 µM.
On to `CCc1c2c(cc(C(C)C)c1CC(=O)N=S(N)(=O)c1cc(C(C)(C)O)cs1)COC2` (stereo not drawn) [Example 244, N-(amino (4-(2-hydroxypropan-2-yl)thiophen-2-yl)(oxo)-λ^6-sulfaneylidene)-2-(4-ethyl-6-isopropyl-1,3-dihydroisobenzofuran-5-yl) acetamide], for which the IC50 is 1 to 5 µM.
Take `CCc1cc2c(c(C(C)C)c1CC(=O)N=S(N)(=O)c1cc(C(C)(C)O)cs1)COC2` (stereo not drawn) [Example 245, N-(amino (4-(2-hydroxypropan-2-yl)thiophen-2-yl)(oxo)-λ^6-sulfaneylidene)-2-(6-ethyl-4-isopropyl-1,3-dihydroisobenzofuran-5-yl) acetamide]: the IC50 was 1 to 5 µM.
Consider `CC(C)c1cc2c(c(C(C)C)c1CC(=O)N=S(N)(=O)c1sc(C(C)(C)O)cc1F)COC2` (stereo not drawn) [Example 246, N-(amino(3-fluoro-5-(2-hydroxypropan-2-yl)thiophen-2-yl)(oxo)-λ^6-sulfaneylidene)-2-(4,6-diisopropyl-1,3-dihydroisobenzofuran-5-yl) acetamide], for which the IC50 fell in the range of 0.04 to 0.2 µM.
As for `CC(C)c1cc(C#N)c(F)c(C(C)C)c1CC(=O)N=S(N)(=O)c1cc(C(C)(O)CO)n(-c2ccccc2)n1` (stereo not drawn) [Example 247, N-(amino(5-(1,2-dihydroxypropan-2-yl)-1-phenyl-1H-pyrazol-3-yl)(oxo)-λ^6-sulfaneylidene)-2-(4-cyano-3-fluoro-2,6-diisopropylphenyl)acetamide], the IC50 was 1 to 5 µM.
For `CC(C)c1cc(C(F)F)nc(C(C)C)c1CC(=O)N=S(N)(=O)c1sc(CN(C)C)cc1F` (stereo not drawn) [Example 248, N-(amino(5-((dimethylamino)methyl)-3-fluorothiophen-2-yl)(oxo)-λ^6-sulfaneylidene)-2-(6-(difluoromethyl)-2,4-diisopropylpyridin-3-yl)acetamide], the IC50 is 1 to 5 µM.
In the case of `CC(C)c1cc2c(c(C(C)C)c1CC(=O)N=S(N)(=O)c1sc(CN(C)C)cc1F)COC2` (stereo not drawn) [Example 249, N-(amino(5-((dimethylamino)methyl)-3-fluorothiophen-2-yl)(oxo)-λ^6-sulfaneylidene)-2-(4,6-diisopropyl-1,3-dihydroisobenzofuran-5-yl)acetamide], the IC50 lay in the range of 1 to 5 µM.
Still for that read-out and setting: the value for `CC(C)c1cc(C(F)F)cc(C(C)C)c1CC(=O)N=S(N)(=O)c1ncc(CN(C)C)cc1F` (stereo not drawn) [Example 250] was 5 to 30 µM.
For `CC(C)c1cc(COC2CCCC2)cc(C(C)C)c1CC(=O)N=S(N)(=O)c1cnc(C(C)(O)CO)s1` (stereo not drawn) [Example 251, N-(amino(2-(1,2-dihydroxypropan-2-yl)thiazol-5-yl)(oxo)-λ^6-sulfaneylidene)-2-(4-((cyclopentyloxy)methyl)-2,6-diisopropylphenyl)acetamide], the IC50 lay in the range of 0.2 to 1 µM.

(Values after US20230059136A1, “THE COMPOUNDS AND COMPOSITIONS FOR TREATING CONDITIONS ASSOCIATED WITH NLRP ACTIVITY” (Novartis AG, priority 2018, published 2023).)
